According to publication PMC10328743, “5-Nitro-3-(2-(4-phenylthiazol-2-yl)hydrazineylidene)indolin-2-one derivatives inhibit HIV-1 replication by a multitarget mechanism of action” (Frontiers in Cellular and Infection Microbiology, 2023):
Where two headings read alike, the source gives them in different places.

What was measured:
[1] = tested on: HIV-1; assay: HIV-1 replication inhibition in MT4 cells; assay type: cell-based; conditions: three independent experiments, average ± standard deviation, read-out: HIV-1 EC50
Protocol: HIV-1 replication was carried out in MT4 cells as previously reported ([Corona et al., 2016a]) using a molecular clone derived from the pNL4-3 ([Thierry et al., 2015]). A total of 120 ng of p24^gag antigen per 10^6 cells, corresponding to a multiplicity of infection (m.o.i.) of 0.3, was used for infection. […] Flow cytometry analysis was performed on a FACSCalibur flow cytometer (BD Biosciences, San Jose, CA, USA), and the results were analyzed using the […] software.

[2] = molecular target: T1, HIV-1 IN-LEDGF binding (Human immunodeficiency virus type 1 group M subtype B, UniProt P12497); assay: biochemical
T1 construct: Preparation of recombinant full-length IN and LEDGF proteins; made in house; host or cells: E. coli BL21(DE3)
Protocol: Proteins were expressed in E. coli BL21(DE3). Briefly, His-IN was purified by loading the precipitate of cell lysate onto a Ni-Sepharose column and eluting with a […] imidazole gradient (0–500 mM) in a HEPES buffer (50 mM, pH 7.5) containing NaCl (1 M), CHAPS (7.5 mM), and β-mercaptoethanol (2 mM). FLAG-IN was purified by loading the precipitate of cell lysate onto a phenyl-sepharose and ammonium sulfate gradient (0–800 mM) in a HEPES (pH 7.5, 50 mM) buffer containing NaCl (200 mM), CHAPS (7.5 mM), and β-mercaptoethanol (2 mM). Peak fractions were pooled, loaded onto a heparin column, and eluted with an increasing NaCl gradient (200 mM to 1 M) in a HEPES (pH 7.5, 50 mM) buffer containing CHAPS (7.5 mm) and β-mercaptoethanol (2 mM). Fractions containing integrase were pooled and stored in glycerol (10%) at −80°C.
Briefly, His-IN was preincubated with different concentrations of a compound in a buffer containing NaCl (150 mm), MgCl2 (2 mM), Nonidet P-40 (0.1%), BSA (1 mg/ml), and Tris (pH 7.4, 25 mm) for 30 min at room temperature. Then, FLAG-LEDGF was added to the reaction mixture, and a mixture of anti-His6-XL665 and anti-FLAG-EuCryptate antibodies was added.

[3] = Human immunodeficiency virus 1, MT4, viral replication in MT4 cells

With `O=C1Nc2ccc(Cl)cc2/C1=N/Nc1nc(-c2ccc(Cl)c(Cl)c2)cs1` [9b] the EC50 [1, 3] was < 20 µM, the EC50 ([1]; viral replication in MT4 cells) was 13.2 ± 3.7 µM and the IC50 [2] was > 100 µM.
For `Cc1ccc(-c2csc(N/N=C3\C(=O)Nc4ccc([N+](=O)[O-])cc43)n2)cc1` [10a], the EC50 [1, 3] was < 20 µM, the EC50 ([1]; viral replication in MT4 cells) was 15.8 ± 1.8 µM and the IC50 [2] was > 100 µM. For the same compound, the “IC50 IN/LEDGF binding” value [2] was “without interfering with the binding of LEDGF”.
